The CC50 is the concentration at which the toxic effect on the cells reaches its halfway point. The low end stands for harm at low concentration, the high end for better tolerance by the cells. Broadly, the EC50 is the midpoint of the concentration-response curve.

Series [1] is described as follows: Compound cytotoxicity, XTT-based colorimetric assay. It is filed as cell-based. The following applies: human; uninfected MT2 cells, day 4, XTT assay. As for the experimental part: Compound cytotoxicity and the corresponding CC50 values were determined using the same protocol as described in the antiviral assay except that uninfected cells were used. Cytotoxicity was assessed on day 4 in uninfected MT2 cells by using an XTT (2,3-bis[2-Methoxy-4-nitro-5-sulfophenyl]-2H-tetrazolium-5-carboxyanilide inner salt)-based colorimetric assay (Sigma-Aldrich, St Louis, Mo.).
In general terms: Tetrazolium assays rely on reduction of a dye to a coloured formazan, in cell work by metabolically active cells.

In series [2] the test system is recombinant NL4-3 virus (nef section replaced with Renilla luciferase gene) in MT-2 cells. Description: HIV cell culture assay (antiviral activity, luciferase readout in infected MT-2 cells). It is filed as cell-based. The following applies: Renilla, NL43. The protocol:
HIV cell culture assay-MT-2 cells, 293T cells and the proviral DNA clone of NL4-3 virus were obtained from the NIH AIDS Research and Reference Reagent Program. MT-2 cells were propagated in RPMI 1640 media supplemented with 10% heat inactivated fetal bovine serum (FBS), 100 μg/ml penicillin G and up to 100 units/mL streptomycin. The 293T cells were propagated in DMEM media supplemented with 10% heat inactivated FBS, 100 μg/mL penicillin G and 100 μg/mL streptomycin. A recombinant NL4-3 proviral clone, in which a section of the nef gene was replaced with the Renilla luciferase gene, was used to make the reference virus used in these studies. The recombinant virus was prepared through transfection of the recombinant NL4-3 proviral clone into 293T cells using Transit-293 Transfection Reagent from Minis Bio LLC (Madison, WI). Supernatent was harvested after 2-3 days and the amount of virus present was titered in MT-2 cells using luciferase enzyme activity as a marker by measuring luciferase enzyme activity. Luciferase was quantitated using the EnduRen Live Cell Substrate from Promega (Madison, WI). Antiviral activities of compounds toward the recombinant virus were quantified by measuring luciferase activity in MT-2 cells infected for 4-5 days with the recombinant virus in the presence of serial dilutions of the compound.
The 50% effective concentration (EC50) was calculated by using the exponential form of the median effect equation where (Fa)=1/[1+(ED50/drug conc.)m] (Johnson V A, Byington R T. Infectivity Assay. In Techniques in HIV Research. ed. Aldovini A, Walker B D. 71-76. New York: Stockton Press. 1990).

In turn, `Cn1nc(NS(C)(=O)=O)c2c(Cl)ccc(-n3c([C@H](Cc4cc(F)cc(F)c4)NC(=O)Cn4nc(C(F)F)c5c4C(F)(F)[C@@H]4C[C@H]54)nc4nc(OCC5CCCC5)ccc4c3=O)c21` (atropisomer, axis not shown; (P)) [Example 2, N—((S)-1-((3P)-3-(4-chloro-1-methyl-3-(methylsulfonamido)-1H-indazol-7-yl)-7-(cyclopentylmethoxy)-4-oxo-3,4-dihydropyrido[2,3-d]pyrimidin-2-yl)-2-(3,5-difluorophenyl)ethyl)-2-((3bS,4aR)-3-(difluoromethyl)-5,5-difluoro-3b,4,4a,5-tetrahydro-1H-cyclopropa[3,4]cyclopenta[1,2-c]pyrazol-1-yl)acetamide] came in with a CC50 at 4 days in series [1] of more than 1000 nM. In series [2], the EC50 is 0.06 nM.
`Cn1nc(NS(C)(=O)=O)c2c(Cl)ccc(-n3c([C@H](Cc4cc(F)cc(F)c4)NC(=O)Cn4nc(C(F)F)c5c4C(F)(F)[C@@H]4C[C@H]54)nc4nc(O)ccc4c3=O)c21` (atropisomer, axis not shown; (P)) [Example 1, N—((S)-1-((3P)-3-(4-chloro-1-methyl-3-(methylsulfonamido)-1H-indazol-7-yl)-7-hydroxy-4-oxo-3,4-dihydropyrido[2,3-d]pyrimidin-2-yl)-2-(3,5-difluorophenyl)ethyl)-2-((3bS,4aR)-3-(difluoromethyl)-5,5-difluoro-3b,4,4a,5-tetrahydro-1H-cyclopropa[3,4]cyclopenta[1,2-c]pyrazol-1-yl)acetamide] showed a CC50 at 4 days in series [1] of more than 1000 nM. In series [2], the half-maximal effective concentration (EC50) amounted to 2.7 nM.
The matching figures for `Cn1nc(NS(C)(=O)=O)c2c(Cl)ccc(-n3c([C@H](Cc4cc(F)cc(F)c4)NC(=O)Cn4nc(C(F)F)c5c4C(F)(F)[C@@H]4C[C@H]54)nc4nc(OCCN5CCCCC5)ccc4c3=O)c21` (atropisomer, axis not shown; (P)) [Example 11, N—((S)-1-((3P)-3-(4-chloro-1-methyl-3-(methylsulfonamido)-1H-indazol-7-yl)-4-oxo-7-(2-(piperidin-1-yl)ethoxy)-3,4-dihydropyrido[2,3-d]pyrimidin-2-yl)-2-(3,5-difluorophenyl)ethyl)-2-((3bS,4aR)-3-(difluoromethyl)-5,5-difluoro-3b,4,4a,5-tetrahydro-1H-cyclopropa[3,4]cyclopenta[1,2-c]pyrazol-1-yl)acetamide]: more than 1000 nM and 0.49 nM.
The matching figures for `Cn1nc(NS(C)(=O)=O)c2c(Cl)ccc(-n3c([C@H](Cc4cc(F)cc(F)c4)NC(=O)Cn4nc(C(F)F)c5c4C(F)(F)[C@@H]4C[C@H]54)nc4nc(OCCN5CCS(=O)(=O)CC5)ccc4c3=O)c21` (atropisomer, axis not shown; (P)) [Example 7, N—((S)-1-((3P)-3-(4-chloro-1-methyl-3-(methylsulfonamido)-1H-indazol-7-yl)-7-(2-(1,1-dioxidothiomorpholino)ethoxy)-4-oxo-3,4-dihydropyrido[2,3-d]pyrimidin-2-yl)-2-(3,5-difluorophenyl)ethyl)-2-((3bS,4aR)-3-(difluoromethyl)-5,5-difluoro-3b,4,4a,5-tetrahydro-1H-cyclopropa[3,4]cyclopenta[1,2-c]pyrazol-1-yl)acetamide]: more than 1000 nM and 0.26 nM.
On the same counts, the results for `Cn1nc(NS(C)(=O)=O)c2c(Cl)ccc(-n3c([C@H](Cc4cc(F)cc(F)c4)NC(=O)Cn4nc(C(F)F)c5c4C(F)(F)[C@@H]4C[C@H]54)nc4nc(OCCC5CC5)ccc4c3=O)c21` (atropisomer, axis not shown; (P)) [Example 24, N—((S)-1-((3P)-3-(4-chloro-1-methyl-3-(methylsulfonamido)-1H-indazol-7-yl)-7-(2-cyclopropylethoxy)-4-oxo-3,4-dihydropyrido[2,3-d]pyrimidin-2-yl)-2-(3,5-difluorophenyl)ethyl)-2-((3bS,4aR)-3-(difluoromethyl)-5,5-difluoro-3b,4,4a,5-tetrahydro-1H-cyclopropa[3,4]cyclopenta[1,2-c]pyrazol-1-yl)acetamide] are more than 500 nM and 0.051 nM.
With `Cn1nc(NS(C)(=O)=O)c2c(Cl)ccc(-n3c([C@H](Cc4cc(F)cc(F)c4)NC(=O)Cn4nc(C(F)F)c5c4C(F)(F)[C@@H]4C[C@H]54)nc4nc(OCCC(C)(C)C)ccc4c3=O)c21` (atropisomer, axis not shown; (P)) [Example 3, N—((S)-1-((3P)-3-(4-chloro-1-methyl-3-(methylsulfonamido)-1H-indazol-7-yl)-7-(3,3-dimethylbutoxy)-4-oxo-3,4-dihydropyrido[2,3-d]pyrimidin-2-yl)-2-(3,5-difluorophenyl)ethyl)-2-((3bS,4aR)-3-(difluoromethyl)-5,5-difluoro-3b,4,4a,5-tetrahydro-1H-cyclopropa[3,4]cyclopenta[1,2-c]pyrazol-1-yl)acetamide], in series [1], the CC50 at 4 days was more than 1000 nM. Further, the EC50 in series [2] was found to be 0.06 nM.
As to `Cn1nc(NS(C)(=O)=O)c2c(Cl)ccc(-n3c([C@H](Cc4cc(F)cc(F)c4)NC(=O)Cn4nc(C(F)F)c5c4C(F)(F)[C@@H]4C[C@H]54)nc4nc(OCc5ccccn5)ccc4c3=O)c21` (atropisomer, axis not shown; (P)) [Example 30, N—((S)-1-((3P)-3-(4-chloro-1-methyl-3-(methylsulfonamido)-1H-indazol-7-yl)-4-oxo-7-(pyridin-2-ylmethoxy)-3,4-dihydropyrido[2,3-d]pyrimidin-2-yl)-2-(3,5-difluorophenyl)ethyl)-2-((3bS,4aR)-3-(difluoromethyl)-5,5-difluoro-3b,4,4a,5-tetrahydro-1H-cyclopropa[3,4]cyclopenta[1,2-c]pyrazol-1-yl)acetamide], the CC50 at 4 days in series [1] was more than 100 nM. Moreover, the concentration giving a half-maximal response (EC50) in series [2] was found to be 0.043 nM.
Consider `CCC(C)(C)CCOc1ccc2c(=O)n(-c3ccc(Cl)c4c(NS(C)(=O)=O)nn(C)c34)c([C@H](Cc3cc(F)cc(F)c3)NC(=O)Cn3nc(C(F)F)c4c3C(F)(F)[C@@H]3C[C@H]43)nc2n1` (atropisomer, axis not shown; (P)) [Example 13, N—((S)-1-((3P)-3-(4-chloro-1-methyl-3-(methylsulfonamido)-1H-indazol-7-yl)-7-((3,3-dimethylpentyl)oxy)-4-oxo-3,4-dihydropyrido[2,3-d]pyrimidin-2-yl)-2-(3,5-difluorophenyl)ethyl)-2-((3bS,4aR)-3-(difluoromethyl)-5,5-difluoro-3b,4,4a,5-tetrahydro-1H-cyclopropa[3,4]cyclopenta[1,2-c]pyrazol-1-yl)acetamide], for which, in series [2], the EC50 worked out at 0.17 nM.
In series [1], `C[C@@H](Oc1ccc2c(=O)n(-c3ccc(Cl)c4c(NS(C)(=O)=O)nn(C)c34)c([C@H](Cc3cc(F)cc(F)c3)NC(=O)Cn3nc(C(F)F)c4c3C(F)(F)[C@@H]3C[C@H]43)nc2n1)C1CCCC1` (atropisomer, axis not shown; (P)) [Example 16, N—((S)-1-((3P)-3-(4-chloro-1-methyl-3-(methylsulfonamido)-1H-indazol-7-yl)-7-((R)-1-cyclopentylethoxy)-4-oxo-3,4-dihydropyrido[2,3-d]pyrimidin-2-yl)-2-(3,5-difluorophenyl)ethyl)-2-((3bS,4aR)-3-(difluoromethyl)-5,5-difluoro-3b,4,4a,5-tetrahydro-1H-cyclopropa[3,4]cyclopenta[1,2-c]pyrazol-1-yl)acetamide] gave a CC50 at 4 days of more than 500 nM. Further, the EC50 in series [2] is 0.22 nM.
The matching figures for `CC(C)(C)CCOc1ccc2c(=O)n(-c3ccc(Cl)c4c(NS(C)(=O)=O)nn(CC(F)F)c34)c([C@H](Cc3cc(F)cc(F)c3)NC(=O)Cn3nc(C(F)F)c4c3C(F)(F)[C@@H]3C[C@H]43)nc2n1` (atropisomer, axis not shown; (P)) [Example 14, N—((S)-1-((3P)-3-(4-chloro-1-(2,2-difluoroethyl)-3-(methylsulfonamido)-1H-indazol-7-yl)-7-(3,3-dimethylbutoxy)-4-oxo-3,4-dihydropyrido[2,3-d]pyrimidin-2-yl)-2-(3,5-difluorophenyl)ethyl)-2-((3bS,4aR)-3-(difluoromethyl)-5,5-difluoro-3b,4,4a,5-tetrahydro-1H-cyclopropa[3,4]cyclopenta[1,2-c]pyrazol-1-yl)acetamide]: more than 500 nM and 0.12 nM.
On to `Cn1nc(NS(C)(=O)=O)c2c(Cl)ccc(-n3c([C@H](Cc4cc(F)cc(F)c4)NC(=O)Cn4nc(C(F)F)c5c4C(F)(F)[C@@H]4C[C@H]54)nc4nc(OCCCC(C)(C)C)ccc4c3=O)c21` (atropisomer, axis not shown; (P)) [Example 19], for which the EC50 in series [2] was 0.11 nM.
